From ChEMBL document CHEMBL1135313, “Bromotyrosine-derived natural and synthetic products as inhibitors of mycothiol-S-conjugate amidase” (Bioorg Med Chem Lett, 2002)

Biological target: T1, Mycothiol S-conjugate amidase (Mycobacterium tuberculosis, UniProt P9WJN1)
T1 sequence (P9WJN1 whole entry): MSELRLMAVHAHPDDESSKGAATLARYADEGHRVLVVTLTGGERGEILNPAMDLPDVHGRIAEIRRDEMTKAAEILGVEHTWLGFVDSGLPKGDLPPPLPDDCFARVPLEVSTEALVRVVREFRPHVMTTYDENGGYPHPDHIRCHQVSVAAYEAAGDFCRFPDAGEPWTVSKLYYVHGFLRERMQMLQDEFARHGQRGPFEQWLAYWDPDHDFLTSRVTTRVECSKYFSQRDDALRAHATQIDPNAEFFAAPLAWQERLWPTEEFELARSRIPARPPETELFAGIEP
Assay: Inhibition of Mycothiol -S-conjugate amidase (MCA) from mycobacterium tuberculosis

SMILES | IC50
CC(=O)N[C@H](CSCc1c(C)c(=O)n2c(=O)c(C)c(C)n12)C(=O)NC1C(OC2C(O)C(O)C(O)C(O)C2O)OC(CO)C(O)C1O (stereo partly specified) [MYCOTHIOL BIMANE] | ~1 µM
COC1=C(Br)[C@@H](O)[C@]2(C=C1Br)CC(C(=O)NCCc1[nH]c(N)nc1-c1cc(O)c3ncc(O)c(O)c3c1O)=NO2 | 2 µM
COC1=C(Br)C[C@]2(OC=C1Br)ON=C(C(=O)NCCOc1c(Br)cc(C(O)CN)cc1Br)[C@@H]2O (stereo partly specified) | 26 µM
O=C(NCCSSc1ccc(F)cc1)/C(Cc1ccc(O)c(Cl)c1)=N\O | 37 µM
NCCCOc1c(Br)cc(C/C(=N\O)C(=O)NCCc2c[nH]c(N)n2)cc1Br | 36 µM
COC1=C(Br)C[C@]2(C=C1Br)CC(C(=O)NCCc1c[nH]c(N)n1)=NO2 | 100 µM
Nc1ccc(SSCCNC(=O)/C(Cc2cccc(Br)c2)=N\O)cc1 | 185 µM
CC(=O)N[C@H](CS)C(=O)NC1C(OC2C(O)C(O)C(O)C(O)C2O)OC(CO)C(O)C1O (stereo partly specified) | ~1 µM
O=C(NCCSSc1ccc(F)cc1)/C(Cc1cccc(Br)c1)=N\O | 90 µM
Nc1ccc(SSCCNC(=O)/C(Cc2cc(F)cc(F)c2)=N\O)cc1 | 450 µM
COC1=C(Br)C[C@]2(OC=C1Br)ON=C(C(=O)NCCOc1c(Br)cc(CCN)cc1Br)[C@@H]2O | 20 µM
N=C(N)CCCCNC(=O)/C(Cc1cc(Br)c(OCCCN)c(Br)c1)=N/O | 2.8 µM
O=C(NCCSSc1ccc(F)cc1)/C(Cc1cc(F)cc(F)c1)=N\O | 2720 µM
Nc1ccc(SSCCNC(=O)/C(Cc2ccc(O)c(Cl)c2)=N\O)cc1 | 35 µM
O=C(NCCSSCCNC(=O)/C(Cc1ccc(O)c(Br)c1)=N/O)/C(Cc1ccc(O)c(Br)c1)=N/O [PSAMMAPLIN A] | 2.8 µM
Cc1cccc(C)c1SSCCNC(=O)/C(Cc1cccc(Br)c1)=N/O | 65 µM
